Patent US7112676B2, “Pyrimido compounds having antiproliferative activity” (Hoffmann-La Roche Inc., priority 2002, dated 2006)

Columns and labels:
VEGF-stimulated HUVEC = VEGF-stimulated HUVEC proliferation assay (BrdU); assay type: cell-based; conditions: Homo sapiens, VEGF 20 ng per mL, BrdU labeling, 24 hour exposure, read-out: IC50 (μM) of VEGF and FGF-Stimulated HUVEC Proliferation Assays HUVEC/VEFG
Method: The antiproliferative activity of test compounds of this invention in cell-based assays was evaluated by BrdU assay using the BrdU kit (Roche Biochemicals 1-647-229). Human umbilical vein endothelial cells (HUVEC, Clonetics CC-2519) were cultured in EGM-2 (Clonetics CC-3162) medium and seeded at 10000 cells per well in a volume of 200 μL of EGM-2 (Clonetics CC-3162) media in a 96-well flat bottom plates (Costar 3595) overnight. After 24 hours of growth at 37° C. with 5% CO2, the incubation media was removed slowly by aspiration and the content of each well was washed with 300 μL pre-warmed EBM-2 (Clonetics CC-3156) containing 50 μg per mL of gentamycin and 50 ng per mL of amphotercin-B (Clonetics CC-4083). Subsequently, the remaining media was again aspirated and replaced with 160 μL per well of serum starvation media (EBM-2 supplemented with 1% heat inactivated FBS (Clonetics CC-4102), 50 μg per mL gentamycin and 50 ng per mL of amphotercin-B (Clonetics CC-4083), 10 units per mL of Wyeth-Ayerst heparin (NDC0641-0391-25), and 2 mM L-glutamine (GIBCO 25030-081). After serum starving the cells for 24 hours, 20 μL of test compound at 10× test concentration in serum starvation medium with 2.5% DMSO was added to the appropriate wells. The control wells contained 20 μL of serum starvation medium with 2.5% DMSO. Plates were returned to the incubator for 2 hours. After pre-incubating the cells with the test compounds for 2 hours, 20 μL of growth factors at 10× assay concentration diluted in serum starvation media, FGF at 50 ng per mL, or VEGF (R&D systems 293-VE) at 200 ng per mL were added. The final concentration of FGF in the assay was 5 ng per mL and the final concentration of VEGF in the assays was 20 ng per mL. The growth factor free control wells had 20 μL per well of serum starvation media with the same amount of BSA as the wells with growth factors. The plates were returned to the incubator for an additional 22 hours.
After 24 hour exposure to the test compounds, the cells were labeled with BrdU (Roche Biochemicals 1-647-229), by adding 20 μL per well of BrdU labeling reagent that has been diluted (1:100) in serum starvation medium. The plates were then returned to the incubator for 4 hours. The labeling medium was removed by draining the medium onto paper towels. The cells were fixed and DNA denatured by adding 200 μL of fixation/denaturation solution to each well and incubating at room temperature for 45 minutes. The fixation/denaturation solution was drained onto paper towels and to each well was added 100 μL of anti-BrdU-POD and the wells were incubated for 2 hours at room temperature. The antibody solution was removed and the wells were each washed 3–4 times with 300 μl PBS. 100 μL of the TMB substrate solution was added to each well and the wells were incubated at room temperature for 5–8 minutes. The reaction was then stopped by adding 100 μL per well of 1 M phosphoric acid. The plates were read at 450 nm with reference wavelength of 650 nm. The percent inhibition for each test compound was calculated by subtracting the absorbency of the blank (no cells) wells from all wells, then subtracting the division of the average absorbency of each test duplicate by the average of the controls from 1. The final product was then multiplied by 100 (% of inhibition=(1−average absorbency of test duplicate/average of control)100). The IC50 value is the concentration of test compound that inhibits by 50% BrdU labeling, and is a measure of inhibition of cell proliferation. The IC50 is determined from the linear regression of a plot of the logarithm of the concentration versus percent inhibition.

EGFR = EGFR (Homo sapiens, UniProt P00533); test: EGFR kinase HTRF assay; assay type: biochemical; conditions: 0.5 μM ATP, read-out: IC50 (μM) - Enzyme Inhibition Assays EGFR
Chain of EGFR (P00533 25-1210, species assumed): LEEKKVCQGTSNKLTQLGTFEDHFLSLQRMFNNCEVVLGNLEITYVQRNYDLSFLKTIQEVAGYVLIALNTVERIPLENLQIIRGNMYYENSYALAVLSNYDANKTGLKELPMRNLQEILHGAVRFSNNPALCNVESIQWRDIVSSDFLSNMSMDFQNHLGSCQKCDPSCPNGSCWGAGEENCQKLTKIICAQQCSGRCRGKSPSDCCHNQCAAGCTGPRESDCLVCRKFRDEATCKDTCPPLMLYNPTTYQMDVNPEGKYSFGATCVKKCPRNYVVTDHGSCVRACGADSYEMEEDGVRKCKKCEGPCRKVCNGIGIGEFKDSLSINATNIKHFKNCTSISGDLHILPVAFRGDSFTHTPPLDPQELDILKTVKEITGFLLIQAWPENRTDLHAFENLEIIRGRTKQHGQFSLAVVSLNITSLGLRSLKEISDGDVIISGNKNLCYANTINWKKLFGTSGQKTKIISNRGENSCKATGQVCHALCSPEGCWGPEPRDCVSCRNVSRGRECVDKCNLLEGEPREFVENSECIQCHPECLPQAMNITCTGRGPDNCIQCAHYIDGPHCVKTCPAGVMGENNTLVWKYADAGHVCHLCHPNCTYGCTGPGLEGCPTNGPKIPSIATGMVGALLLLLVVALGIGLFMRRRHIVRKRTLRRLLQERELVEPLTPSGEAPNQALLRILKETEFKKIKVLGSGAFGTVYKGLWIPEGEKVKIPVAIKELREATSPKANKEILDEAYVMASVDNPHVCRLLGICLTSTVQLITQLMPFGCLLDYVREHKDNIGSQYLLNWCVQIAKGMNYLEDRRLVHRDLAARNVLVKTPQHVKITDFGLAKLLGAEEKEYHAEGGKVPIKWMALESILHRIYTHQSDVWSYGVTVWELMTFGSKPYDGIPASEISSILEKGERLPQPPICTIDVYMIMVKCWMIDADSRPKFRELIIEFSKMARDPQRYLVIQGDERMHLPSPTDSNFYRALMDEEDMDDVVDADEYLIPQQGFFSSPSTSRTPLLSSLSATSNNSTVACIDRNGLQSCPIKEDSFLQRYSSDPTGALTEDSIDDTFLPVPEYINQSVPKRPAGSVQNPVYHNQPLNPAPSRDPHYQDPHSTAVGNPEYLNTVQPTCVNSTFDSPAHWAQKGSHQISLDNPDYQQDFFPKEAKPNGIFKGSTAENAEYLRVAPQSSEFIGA
Method: (§1) To determine inhibition of KDR, FGFR, EGFR, and PDGFR activity, kinase assays were conducted using an HTRF (Homogeneous Time Resolved Fluorescence) assay. This assay is described in A. J. Kolb et. al., Drug Discovery Today, 1998, 3(7), p 333.
(§2) Kinase activity assays were performed in 96-well polypropylene plates (Falcon) with a total volume of 90 μL in each well. Each well contained 1 μM KDR substrate (Biotin-EEEEYFELVAKKKK), 1 nM activated KDR, and a test compound with one of 8 assay concentrations ranging from 100 μM to […] (1:5 serial dilution). The kinase activity assay was done in the presence of 100 mM HEPES, pH 7.4, 1 mM DTT, 0.1 mM Na2VO4, 25 mM MgCl2, 50 mM NaCl (from KDR stock solution), 1% DMSO (from compound), 0.3 mM ATP (at Km concentration) and 0.02% BSA. The reaction was incubated at 37° C. for 30 minutes. To stop the KDR reaction, 72 μL of reaction mixture was transferred into a STOP plate containing 18 μL of revelation buffer (20 mM EDTA, 50 mM HEPES, pH 7.4, 0.02% BSA, 10 nM Eu-labelled anti-pY antibody (final conc. 2 nM), and 100 nM streptavidin (final conc. 20 nM)). After mixing, 35 μL of solution was transferred into duplicate wells of a 384-well black plate (Costar), and read at 615/665 nm on a Wallac Victor 5 reader.
(§3) The EGFR kinase activity assay was performed with 1 μM substrate (Biotin-EEEEYFELV), 1.5 nM EGFR, test compounds, 100 mM HEPES, pH 7.4, 1 mM DTT, 5 mM MgCl2, 2 mM MnCl2, 1% DMSO, 0.5 μM ATP (Km for EGFR), 0.1 mM Na2VO4, and 0.02% BSA. The rest of the assay was performed in the same manner as the KDR assay.
(§4) Compound IC50 values were determined from duplicate sets of data, and calculated by using Excel and fitting data to equation Y=[(a−b)/{1+(X/c)^d]+b, where a and b are enzyme activity in the presence of no test inhibitor compound and an infinite amount of inhibitor test compound, respectively, c is the IC50 and d is the hill constant of the compound response. The IC50 value is the concentration of test compound that reduces by 50% the enzyme activity under the test conditions described.

PDGFR = PDGFR kinase HTRF assay; assay type: biochemical; conditions: 2.3 μM ATP, read-out: IC50 (μM) - Enzyme Inhibition Assays PDGFR
Method: as §1, §2
as §3, with “PDGFR” for “EGFR”, “1.0” for “1.5”, “PDGFR,” for “EGFR,”, “2.3” for “0.5”, “PDGFR),” for “EGFR),”
as §4

IC50 (EGFR) | IC50 (PDGFR) | melting point | SMILES | IC50 (VEGF-stimulated HUVEC)
< 10 µM | < 10 µM | 268 to 273 °C | COc1ccc(N2C(=O)N(c3cccc(C(N)=O)c3)c3nc(Nc4ccccc4)ncc3C2C)cc1 (racemic) [Example 6, (±)-3-[3-(4-Methoxy-phenyl)-4-methyl-2-oxo-7-phenylamino-3,4-dihydro-2H-pyrimido[4,5-d]pyrimidin-1-yl]-benzamide] | < 10 µM
< 10 µM | < 10 µM | 228 to 234 °C | COc1ccc(N2C(=O)N(c3ccc(OC)cc3)C(C)c3cnc(Nc4ccccc4)nc32)cc1 (racemic) [Example 4b, (±)-1,3-Bis-(4-methoxy-phenyl)-4-methyl-7-phenylamino-3,4-dihydro-1H-pyrimido[4,5-d]pyrimidin-2-one] | < 10 µM
< 10 µM | < 10 µM | 242 to 250 °C | COc1ccc(N2C(=O)N(c3ccccc3)c3nc(Nc4ccccc4)ncc3C2C)c(F)c1 (racemic) [Example 8d, (±)-3-(2-Fluoro-4-methoxy-phenyl)-4-methyl-1-phenyl-7-phenylamino-3,4-dihydro-1H-pyrimido[4,5-d]pyrimidin-2-one] | < 10 µM
< 10 µM | < 10 µM | 195 to 198 °C | COc1ccc(N2C(=O)N([C@H](C)CO)c3nc(Nc4ccccc4)ncc3[C@@H]2C)cc1 [Example 15b, 1-(2-Hydroxy-1-(R)-methyl-ethyl)-3-(4-methoxy-phenyl)-4-(S)-methyl-7-phenylamino-3,4-dihydro-1H-pyrimido[4,5-d]pyrimidin-2-one] | < 10 µM
< 10 µM | < 10 µM | 282 to 286 °C | COc1ccc(N2C(=O)N(c3cccc(C(N)=O)c3)c3nc(Nc4ccccc4)ncc3C2C)c(F)c1 (racemic) [Example 10, (±)-3-[3-(2-Fluoro-4-methoxy-phenyl)-4-methyl-2-oxo-7-phenylamino-3,4-dihydro-2H-pyrimido[4,5-d]pyrimidin-1-yl]-benzamide] | < 10 µM
< 10 µM | < 10 µM | 224 to 228 °C | COc1ccc(N2C(=O)N(c3cccc(C#N)c3)c3nc(Nc4ccccc4)ncc3C2C)cc1 (racemic) [Example 5b, (±)-3-[3-(4-Methoxy-phenyl)-4-methyl-2-oxo-7-phenylamino-3,4-dihydro-2H-pyrimido[4,5-d]pyrimidin-1-yl]-benzonitrile] | < 10 µM
< 10 µM | < 10 µM | 222 to 234 °C | COc1ccc(N2C(=O)N(c3ccccc3)c3nc(Nc4ccccc4)ncc3C2C)cc1 (racemic) [Example 1g, (±)-3-(4-Methoxy-phenyl)-4-methyl-1-phenyl-7-phenylamino-3,4-dihydro-1H-pyrimido[4,5-d]pyrimidin-2-one] | < 10 µM
< 10 µM | < 10 µM | 223 to 236 °C | COc1ccc(N2C(=O)N(c3ccccc3)c3nc(Nc4ccccc4)ncc3[C@@H]2C)cc1 (single isomer, unassigned) [Example 3] | < 10 µM
< 10 µM | < 10 µM | 223 to 228 °C | COc1ccc(N2C(=O)N(c3cccc(C#N)c3)c3nc(Nc4ccccc4)ncc3C2C)c(F)c1 (racemic) [Example 9b, (±)-3-[3-(2-Fluoro-4-methoxy-phenyl)-4-methyl-2-oxo-7-phenylamino-3,4-dihydro-2H-pyrimido[4,5-d]pyrimidin-1-yl]-benzonitrile] | < 10 µM
